Reference: EP1067939B1, “USE OF STEROIDAL ALKALOID DERIVATIVES AS INHIBITORS OF HEDGEHOG PROTEIN SIGNALING PATHWAYS” (The Johns Hopkins University, priority 1998, dated 1999)
“And” between values parts separate entries of the source, which are not always exact repeats. Equal values may be shown once.

Assays:
His6Hh-C = target: T1, His6Hh-C (Drosophila melanogaster, UniProt Q02936); experiment: In vitro Hh autoprocessing reaction with purified components; format: biochemical; settings: for interference with cholesterol-stimulated autoprocessing: 12 µM cholesterol, 3 hours at 30° C, up to 27-fold excess to cholesterol; for His6Hh-C autocleavage reaction in the presence of compound without sterol: absence of cholesterol, up to 324 µM
T1 construct: made in house
T1 sequence (Q02936 252-471): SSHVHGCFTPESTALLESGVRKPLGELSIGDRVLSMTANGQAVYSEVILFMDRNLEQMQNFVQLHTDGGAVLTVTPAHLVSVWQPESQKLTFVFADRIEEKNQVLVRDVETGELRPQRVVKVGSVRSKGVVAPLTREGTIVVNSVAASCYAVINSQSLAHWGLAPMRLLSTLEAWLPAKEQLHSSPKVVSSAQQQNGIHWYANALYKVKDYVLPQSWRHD

chick embryos = settings: in ovo, highest concentrations tested, 50µM
From the text: • 1. M. Hammerschmidt, A. Brook, A. P. McMahon, Trends Genet, 13, 14-21 (1997). • 2. C. Chiang, et al., Nature, 383,407-413 (1996). • 3. Y. Tanabe, T. M. Jessell, Science 274, 1115-1123 (1996). • 4. T. P. Yamaguchi, Curr. Opin. Genet. Dev. 7, 513-518 (1997). • 5. N. Shubin, C. Tabin, S. Carroll, Nature 388, 639-648 (1997). • 6. A. E. Oro, et al., Science 276, 817-821 (1997). • 7. M. M. Cohen, K. K. Sulik, J. Craniofac. Genet. Deve. Biol. 12, 196-244 (1992). • 8. E. Belloni, et al., Nature Genet. 14, 353-356 (1996). • 9. E. Roessler, et al., Nature Genet. 14, 357-360 (1996). • 10. J. A. Porter, et al., Nature 374, 363-366 (1995). • 11. J. A. Porter, K. E. Young, P. A. Beacy, Science 274, 255-259 (1996b). • 12. J. J. Lee, et al., Science 266, 1528-1537 (1994). • 13. J. A. Porter, et al., Cell 86, 21-34 (1996a). • 14. C. Roux, Arch. Franc. Pediatr. 21, 451-464 (1964). • 15. C. Roux, C. R. Soc. Biol. 160, 1353-1357 (1966). • 16. D. B. Dehart, L. Lanoue, G. S. Tinit, K. K. Sulik, Am J. Med. Genet. 68, 328-337 (1997). • 17. M. Kraml, J. F. Bagli, D. Dvornik, Biochem. and Biophysical Res. Com. 15, 455-457 (1964). • 18. J. Avigan, D. Steinberg, H. E. Vroman, M. J. Thompson, E. Mosettig, J. Biol. Chem 235, 3123-3126 (1960). • 19. R. B. Clayton, A. N. Nelson, I. D. Frantz Jr., J. Lipid Res. 4, 166-178 (1963). • 20. J. Aufenanger, J. Pill, K. Stegmeier, F. H. Schmidt, Horm. Metabol. Res. 17, 612-613 (1986). • 21. […] G. Popjak, A. Meenean, E. J. Parish, W. D. Nes, J. Biol. Chem 264,6230-6238 (1989). • 23. H. Yoshikawa, Brain Deve. 13, 115-120 (1991). • 24. R. I. Kelley, et al., Am. J. Of Med. Gen. 66, 478-484 (1996). • 25. G. S. Tint, et al., New England Journal of Medicine 330, 107-113 (1994). • 26. T.E. Willnow, et al., Proc. Natl. Acad. Sci USA 93, 8460-8464 (1996). • 27. S. Stefansson, D. A. Chappell, K. M. Argraves, D. K. Strickland, W. S. Argraves, J. Biol. Chem. 270, 19417-19421 (1995). • 28. W. Binns, L. F. James, J. L. Shupe, G. Everett, Am. J. Vet. Res. 24, 1164-1174 (1963). • 29. R. F. Keeler, W. Binns, Teratology 1, 5-10 (1968). • 30. P. A. Beachy, et al., CSH Symp. Quant. Biol. 62, in press (1997). • 31. […]

[1] = test system: primary human lymphoblasts; experiment: Cholesterol Biosynthesis Assay (sterol profiles of cultured cells); format: cell-based; settings: for Percent Sterols: 2. C28 Sterols / Percent Sterols: 3. C29 Sterols / Percent Sterols: Cholesterol / Percent Sterols: c. Cholesta-7,24-dien-3ß-ol / Percent Sterols: d. Zymosterol / Percent Sterols: e. Cholesta-8(14)-en-3ß-ol / Percent Sterols: f. 7 Dehydrocholesterol / Total Sterols (µg/mg protein) / Percent Sterols: h. C27 Sterol 1 (mw 384) / Percent Sterols: j. C27 Oxysterol 1 (mw 400) / Percent Sterols: k. C27 Oxysterol 2 (mw 400) / Percent Sterols: i. C27 Sterol 2 (mw 382): five days
endogenous Shh signaling = experiment: Midline neural plate/notochord explant assay of endogenous Shh signaling; format: cell-based, chick
Ptc -/- MEFs = experiment: β-galactosidase activity in ptc-lacZ mouse embryonic fibroblasts; format: cell-based; settings: Ptc -/- MEFs 21-4, 16 hours (Figure 15)
From the text: These studies involve the use of mouse embryonic fibroblasts (MEFs) that were generated by trypsin digestion of E8.5 embryos from patched (ptc) +/- matings.
The MEF line 23-4 is heterozygous for ptc-lacZ, and thus contains one functional ptc allele capable of maintaining a repressed state of the pathway, but will express lacZ when the pathway is activated by addition of Shh protein (see Figure 12).

Compound: CC1=C2C[C@H]3[C@@H](CC=C4C[C@@H](O)CC[C@@]43C)[C@@H]2CC[C@]12O[C@@H]1C[C@H](C)CN[C@H]1[C@H]2C [Cyclopamine, cyclopamine]
- interference with cholesterol-stimulated autoprocessing (His6Hh-C): does not interfere with autoprocessing
- His6Hh-C autocleavage reaction in the presence of compound without sterol (His6Hh-C): does not proceed
- embryos displayed normal morphology (chick embryos): 2/10
- Percent Sterols: b. 7 Dehydrodesmosterol [1]: 0.8%
- Percent Sterols: 2. C28 Sterols ([1]; 1.25 µM): 1.2%
- Percent Sterols: 3. C29 Sterols ([1]; 1.25 µM): 0.7%
- Percent Sterols: Cholesterol ([1]; 1.25 µM): 87%
- Percent Sterols: c. Cholesta-7,24-dien-3ß-ol ([1]; 1.25 µM): 0.6%
- Percent Sterols: d. Zymosterol ([1]; 1.25 µM): 2.3%
- Percent Sterols: e. Cholesta-8(14)-en-3ß-ol ([1]; 1.25 µM): 0.9%
- Percent Sterols: f. 7 Dehydrocholesterol ([1]; 1.25 µM): 2.4%
- Total Sterols (µg/mg protein) ([1]; 1.25 µM): 8.4 µg/mg protein
- Percent Sterols: 2. C28 Sterols ([1]; 2.5 µM): 1.3%
- Percent Sterols: 3. C29 Sterols ([1]; 2.5 µM): 1.2%
- Percent Sterols: Cholesterol ([1]; 2.5 µM): 76%
- Percent Sterols: c. Cholesta-7,24-dien-3ß-ol ([1]; 2.5 µM): 0.9%
- Percent Sterols: d. Zymosterol ([1]; 2.5 µM): 4.5%
- Percent Sterols: e. Cholesta-8(14)-en-3ß-ol ([1]; 2.5 µM): 2.5%
- Percent Sterols: f. 7 Dehydrocholesterol ([1]; 2.5 µM): 4.2%
- Total Sterols (µg/mg protein) ([1]; 2.5 µM): 8.5 µg/mg protein
- Percent Sterols: 2. C28 Sterols ([1]; 5.0 µM): 1.8%
- Percent Sterols: 3. C29 Sterols ([1]; 5.0 µM): 3.1%
- Percent Sterols: Cholesterol ([1]; 5.0 µM): 68%
- Percent Sterols: c. Cholesta-7,24-dien-3ß-ol ([1]; 5.0 µM): 1.6%
- Percent Sterols: d. Zymosterol ([1]; 5.0 µM): 4.7%
- Percent Sterols: e. Cholesta-8(14)-en-3ß-ol ([1]; 5.0 µM): 2.7%
- Percent Sterols: f. 7 Dehydrocholesterol ([1]; 5.0 µM): 6.3%
- Total Sterols (µg/mg protein) ([1]; 5.0 µM): 8.3 µg/mg protein
- Higher doses that fully inhibit HNF3β and Isl-1 induction (endogenous Shh signaling): 1.0 µM
- Intermediate doses that block induction of HNF3β while permitting induction of Isl-1 (endogenous Shh signaling): 0.25 µM

Compound: C[C@H]1CC[C@]2(NC1)O[C@H]1C[C@H]3[C@@H]4CC[C@H]5C[C@@H](O)CC[C@]5(C)[C@H]4CC[C@]3(C)[C@H]1[C@@H]2C [Tomatidine, tomatidine]
- interference with cholesterol-stimulated autoprocessing (His6Hh-C): does not interfere with autoprocessing
- His6Hh-C autocleavage reaction in the presence of compound without sterol (His6Hh-C): does not proceed
- reduction of β-galactosidase activity (Ptc -/- MEFs): cannot he achieved
- Percent Sterols: b. 7 Dehydrodesmosterol [1]: 0.8% and 0.5%
- Percent Sterols: g. Lathosterol [1]: 4.9% and 4.7% and 3.6%
- Percent Sterols: Cholesterol ([1]; 1.25 µM): 54%
- Percent Sterols: c. Cholesta-7,24-dien-3ß-ol ([1]; 1.25 µM): 0.9%
- Percent Sterols: e. Cholesta-8(14)-en-3ß-ol ([1]; 1.25 µM): 6.7%
- Percent Sterols: f. 7 Dehydrocholesterol ([1]; 1.25 µM): 19%
- Percent Sterols: h. C27 Sterol 1 (mw 384) ([1]; 1.25 µM): 7.0%
- Percent Sterols: j. C27 Oxysterol 1 (mw 400) ([1]; 1.25 µM): 1.0%
- Percent Sterols: k. C27 Oxysterol 2 (mw 400) ([1]; 1.25 µM): 2.0%
- Total Sterols (µg/mg protein) ([1]; 1.25 µM): 7.8 µg/mg protein
- Percent Sterols: Cholesterol ([1]; 2.5 µM): 42%
- Percent Sterols: c. Cholesta-7,24-dien-3ß-ol ([1]; 2.5 µM): 0.9%
- Percent Sterols: e. Cholesta-8(14)-en-3ß-ol ([1]; 2.5 µM): 8.9%
- Percent Sterols: f. 7 Dehydrocholesterol ([1]; 2.5 µM): 14%
- Percent Sterols: h. C27 Sterol 1 (mw 384) ([1]; 2.5 µM): 13%
- Percent Sterols: i. C27 Sterol 2 (mw 382) ([1]; 2.5 µM): 4.1%
- Percent Sterols: j. C27 Oxysterol 1 (mw 400) ([1]; 2.5 µM): 2.4%
- Percent Sterols: k. C27 Oxysterol 2 (mw 400) ([1]; 2.5 µM): 5.0%
- Total Sterols (µg/mg protein) ([1]; 2.5 µM): 7.8 µg/mg protein
- Percent Sterols: 2. C28 Sterols ([1]; 5.0 µM): 1.6%
- Percent Sterols: 3. C29 Sterols ([1]; 5.0 µM): 3.1%
- Percent Sterols: Cholesterol ([1]; 5.0 µM): 32%
- Percent Sterols: c. Cholesta-7,24-dien-3ß-ol ([1]; 5.0 µM): 0.7%
- Percent Sterols: e. Cholesta-8(14)-en-3ß-ol ([1]; 5.0 µM): 8.7%
- Percent Sterols: f. 7 Dehydrocholesterol ([1]; 5.0 µM): 9.8%
- Percent Sterols: h. C27 Sterol 1 (mw 384) ([1]; 5.0 µM): 20%
- Percent Sterols: i. C27 Sterol 2 (mw 382) ([1]; 5.0 µM): 4.7%
- Percent Sterols: j. C27 Oxysterol 1 (mw 400) ([1]; 5.0 µM): 4.5%
- Percent Sterols: k. C27 Oxysterol 2 (mw 400) ([1]; 5.0 µM): 11%
- Total Sterols (µg/mg protein) ([1]; 5.0 µM): 5.6 µg/mg protein
- expression of HNF3β and Isl-1 (endogenous Shh signaling; midline explants, 50 µM (Fig. 3C)): unable to block expression of HNF3β and Isl-1
